Test results published in ChEMBL document CHEMBL3885861, “Open TG-GATES”.

Species on record: Rattus norvegicus
Test: Open TG-GATES - Regimen: Single
Assay type: toxicity, organism-based, Sprague-Dawley
Parameters: regimen Single, gender Male, age 6 weeks
Details: in vivo, po, 60 mg/kg, route gavage, dose level Middle; for APTT / Bas / Eos / Fbg / Hb / Ht / Lym / MCH / MCHC / MCV / Mono / Neu / PT / Plat / RBC / Ret / WBC: tissue Blood; for KIDNEY_L / KIDNEY_R / KIDNEY_TOTAL: tissue Kidney; for LIVER: tissue Liver; for A/G / ALP / ALT / AST / BUN / CRE / Ca / Cl / DBIL / GLC / IP / K / LDH / Na / PL / RALB / TBIL / TC / TG / TP / gamma-GTP: tissue Plasma

CC(CN1c2ccccc2Sc2ccccc21)N(C)C (configuration not stated) [PROMETHAZINE]
TERMINAL_BW (3 h): 213.4 g
APTT (3 h): 22.4 s
Bas (3 h): 0%
Eos (3 h): 1%
Fbg (3 h): 317 mg/dL
Hb (3 h): 13.2 g/dL
Ht (3 h): 40.6%
Lym (3 h): 71.6%
MCH (3 h): 20.2 pg
MCHC (3 h): 32.6%
MCV (3 h): 62 fL
Mono (3 h): 2.2%
Neu (3 h): 25%
PT (3 h): 16.4 s
Plat (3 h): 126 x10_4/uL
RBC (3 h): 655.2 x10_4/ul
Ret (3 h): 7.3%
WBC (3 h): 64.7 x10_2/uL
KIDNEY_L (3 h): 0.9 g
KIDNEY_R (3 h): 0.9 g
KIDNEY_TOTAL (3 h): 1.9 g
LIVER (3 h): 9.3 g
A/G (3 h): 1.3
ALP (3 h): 1673 IU/L
ALT (3 h): 56.2 IU/L
AST (3 h): 87.6 IU/L
BUN (3 h): 9.6 mg/dL
CRE (3 h): 0.2 mg/dL
Ca (3 h): 10.5 mg/dL
Cl (3 h): 105.6 meq/L
DBIL (3 h): 0.024 mg/dL
GLC (3 h): 172.8 mg/dL
IP (3 h): 9.6 mg/dL
K (3 h): 4.3 meq/L
LDH (3 h): 222.6 IU/L
Na (3 h): 142.6 meq/L
PL (3 h): 132 mg/dL
RALB (3 h): 3.1 g/dL
TBIL (3 h): 0.016 mg/dL
TC (3 h): 75 mg/dL
TG (3 h): 50 mg/dL
TP (3 h): 5.5 g/dL
gamma-GTP (3 h): 1.2 IU/L
TERMINAL_BW (6 h): 210 g
APTT (6 h): 23.8 s
Bas (6 h): 0%
Eos (6 h): 0.8%
Fbg (6 h): 322 mg/dL
Hb (6 h): 13.4 g/dL
Ht (6 h): 40.7%
Lym (6 h): 77.2%
MCH (6 h): 20.1 pg
MCHC (6 h): 33%
MCV (6 h): 61.1 fL
Mono (6 h): 2.8%
Neu (6 h): 18.4%
PT (6 h): 16.3 s
Plat (6 h): 112.6 x10_4/uL
RBC (6 h): 667.8 x10_4/ul
Ret (6 h): 7.3%
WBC (6 h): 85.9 x10_2/uL
KIDNEY_L (6 h): 0.9 g
KIDNEY_R (6 h): 0.9 g
KIDNEY_TOTAL (6 h): 1.8 g
LIVER (6 h): 8.6 g
A/G (6 h): 1.3
ALP (6 h): 1478.6 IU/L
ALT (6 h): 43.2 IU/L
AST (6 h): 74.6 IU/L
BUN (6 h): 9.4 mg/dL
CRE (6 h): 0.2 mg/dL
Ca (6 h): 10.9 mg/dL
Cl (6 h): 105.2 meq/L
DBIL (6 h): 0.016 mg/dL
GLC (6 h): 180.6 mg/dL
IP (6 h): 9.6 mg/dL
K (6 h): 4.3 meq/L
LDH (6 h): 192.2 IU/L
Na (6 h): 141.8 meq/L
PL (6 h): 125 mg/dL
RALB (6 h): 3 g/dL
TBIL (6 h): 0.022 mg/dL
TC (6 h): 71.6 mg/dL
TG (6 h): 49 mg/dL
TP (6 h): 5.5 g/dL
gamma-GTP (6 h): 1.4 IU/L
TERMINAL_BW (9 h): 211 g
APTT (9 h): 24.1 s
Bas (9 h): 0%
Eos (9 h): 1%
Fbg (9 h): 315.8 mg/dL
Hb (9 h): 13.3 g/dL
Ht (9 h): 40.8%
Lym (9 h): 78.6%
MCH (9 h): 20.4 pg
MCHC (9 h): 32.6%
MCV (9 h): 62.5 fL
Mono (9 h): 3%
Neu (9 h): 17.2%
PT (9 h): 16.6 s
Plat (9 h): 122 x10_4/uL
RBC (9 h): 652.4 x10_4/ul
Ret (9 h): 7.6%
WBC (9 h): 101.4 x10_2/uL
KIDNEY_L (9 h): 0.9 g
KIDNEY_R (9 h): 0.9 g
KIDNEY_TOTAL (9 h): 1.8 g
LIVER (9 h): 8.3 g
A/G (9 h): 1.3
ALP (9 h): 1318.2 IU/L
ALT (9 h): 43.2 IU/L
AST (9 h): 69.6 IU/L
BUN (9 h): 11.6 mg/dL
CRE (9 h): 0.2 mg/dL
Ca (9 h): 10.7 mg/dL
Cl (9 h): 106.2 meq/L
DBIL (9 h): 0.02 mg/dL
GLC (9 h): 179.2 mg/dL
IP (9 h): 9.5 mg/dL
K (9 h): 4.2 meq/L
LDH (9 h): 155.8 IU/L
Na (9 h): 140.2 meq/L
PL (9 h): 131 mg/dL
RALB (9 h): 3 g/dL
TBIL (9 h): 0.026 mg/dL
TC (9 h): 77 mg/dL
TG (9 h): 46.8 mg/dL
TP (9 h): 5.4 g/dL
gamma-GTP (9 h): 1.2 IU/L
TERMINAL_BW (24 h): 217.9 g
APTT (24 h): 23.6 s
Bas (24 h): 0%
Eos (24 h): 1%
Fbg (24 h): 311.6 mg/dL
Hb (24 h): 13.4 g/dL
Ht (24 h): 40.3%
Lym (24 h): 80%
MCH (24 h): 21.1 pg
MCHC (24 h): 33.3%
MCV (24 h): 63.4 fL
Mono (24 h): 2.2%
Neu (24 h): 16%
PT (24 h): 16.7 s
Plat (24 h): 126.1 x10_4/uL
RBC (24 h): 635.4 x10_4/ul
Ret (24 h): 6.8%
WBC (24 h): 113 x10_2/uL
KIDNEY_L (24 h): 1 g
KIDNEY_R (24 h): 1 g
KIDNEY_TOTAL (24 h): 1.9 g
LIVER (24 h): 9.5 g
A/G (24 h): 1.3
ALP (24 h): 1785 IU/L
ALT (24 h): 46.8 IU/L
AST (24 h): 68 IU/L
BUN (24 h): 17.6 mg/dL
CRE (24 h): 0.2 mg/dL
Ca (24 h): 10.8 mg/dL
Cl (24 h): 106.4 meq/L
DBIL (24 h): 0.004 mg/dL
GLC (24 h): 190.6 mg/dL
IP (24 h): 7.4 mg/dL
K (24 h): 4.1 meq/L
LDH (24 h): 185.4 IU/L
Na (24 h): 142 meq/L
PL (24 h): 127.6 mg/dL
RALB (24 h): 3.1 g/dL
TBIL (24 h): 0.014 mg/dL
TC (24 h): 68.8 mg/dL
TG (24 h): 73 mg/dL
TP (24 h): 5.5 g/dL
gamma-GTP (24 h): 1.2 IU/L
